Our source for the IC50 and Ki values is patent US10450278B2, “Substituted 2-thioxo-imidazolidin-4-ones and spiro analogues thereof, active anticancer ingredient, pharmaceutical composition, medicinal preparation, method for treating prostate cancer” (R-Pharm Overseas Inc., priority 2014, dated 2019).

The target in this assay is T1, androgen receptors (Homo sapiens, UniProt P10275, T878A).
T1 sequence (P10275 1-920 T878A): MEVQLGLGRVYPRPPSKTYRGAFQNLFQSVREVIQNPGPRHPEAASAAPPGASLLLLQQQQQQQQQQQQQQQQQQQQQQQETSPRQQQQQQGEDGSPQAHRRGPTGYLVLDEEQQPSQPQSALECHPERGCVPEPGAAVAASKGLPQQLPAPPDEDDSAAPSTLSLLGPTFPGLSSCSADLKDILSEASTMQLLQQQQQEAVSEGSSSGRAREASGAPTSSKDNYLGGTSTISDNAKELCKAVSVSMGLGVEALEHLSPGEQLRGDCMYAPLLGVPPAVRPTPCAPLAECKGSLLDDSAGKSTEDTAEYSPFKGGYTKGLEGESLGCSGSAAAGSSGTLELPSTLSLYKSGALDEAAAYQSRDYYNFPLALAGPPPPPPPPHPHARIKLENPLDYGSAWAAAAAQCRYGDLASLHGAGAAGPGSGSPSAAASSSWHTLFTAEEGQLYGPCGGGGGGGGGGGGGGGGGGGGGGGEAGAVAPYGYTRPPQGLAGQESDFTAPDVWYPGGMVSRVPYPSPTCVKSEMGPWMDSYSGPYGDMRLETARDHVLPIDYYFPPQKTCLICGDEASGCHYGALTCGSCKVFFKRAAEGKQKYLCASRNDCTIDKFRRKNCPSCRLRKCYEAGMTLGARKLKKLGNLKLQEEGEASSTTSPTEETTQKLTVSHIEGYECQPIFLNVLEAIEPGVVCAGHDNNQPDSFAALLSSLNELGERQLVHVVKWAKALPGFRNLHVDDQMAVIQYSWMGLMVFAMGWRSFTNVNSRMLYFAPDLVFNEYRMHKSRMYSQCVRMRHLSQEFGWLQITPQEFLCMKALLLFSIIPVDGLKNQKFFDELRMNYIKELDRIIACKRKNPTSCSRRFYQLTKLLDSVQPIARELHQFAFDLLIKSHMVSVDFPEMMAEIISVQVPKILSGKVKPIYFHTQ
Nature of the assay: cell-based. Here is the method: Determination of antagonistic activity of the new compounds of general formula 1 and their analogues with respect to androgen receptors. The ability of the new compounds of general formula 1 and their analogues block androgen receptors is determined by their effectiveness ingbirovaniya sitmulirovannoy dihydrotestosterone expression of prostate-specific antigen (PSA) in the human prostate cancerous cells, LNCap, bank obtained from the American Tissue Culture (ATCC, USA). These cells are sensitive to 5-α-dihydrotestosterone (DHT) and produce cancerous marker (PSA) in its presence. […] Before experiments, the cells were washed and suspended in the same medium, where, however, calf serum was replaced with serum-treated to remove traces of charcoal hormones. Cells were dispensed at 100 1 (10 000 cells) in cell 96 lunochnoyh dies and left for 4 days in an incubator at […] (100% humidity) in an atmosphere of 95% air/5% CO2. […] Cells were allowed to stand for further 5 days under the same incubation conditions. Then nadkletochnoy environmental samples were taken for analysis on the content of the PSA. The analysis was performed according to the protocol recommended by the kit manufacturer to determine the PSA (Alpha Diagnostic International, USA). After wetting holes on the bottom affixed containing antibodies against PSA, they added 25 ul of samples and then 100 µL of antibodies as anti-PSA, which konyugtrovana horseradish peroxidase. After a 30 minute incubation at room temperature, the wells were removed, the wells were washed several times and poured into the wells, 100 ul of a chromogenic peroxidase substrate. Plates were incubated for 15 minutes at room temperature, the wells were added 50 mcl of stop solution and the intensity of color which developed was measured by absorbance at 450 nm. The intensity of the absorption is proportional to the concentration of PSA in the sample. […] 1.

As usually defined, the IC50 is the point on the concentration scale where inhibition reaches its midpoint. What is called Ki is the equilibrium dissociation constant of an inhibitor or competing ligand from its target. A high value points to a looser hold on the target. Turning to `CNC(=O)c1ccc(N2C(=S)N(c3ccc(C#N)c(C(F)(F)F)c3)C(=O)[C@@]2(C)COC)cc1F` [II], the midpoint of inhibition, the IC50, lay at 145 nM and the inhibition constant (Ki) was found to be 34.9 nM.
Take `CNC(=O)c1ccc(N2C(=S)N(c3ccc(C#N)c(C(F)(F)F)c3)C(=O)[C@]23CCOC3)cc1F` [IV]: the half-maximal inhibitory concentration (IC50) is 83.5 nM and the Ki is 20.1 nM.
